The text below walks through data of patent US6841519B1, “Isoxazoline derivatives and herbicides containing the same as the active ingredient” (Kumiai Chemical Industry Co., Ltd., priority 1999, dated 2005).

Assay type in all cases: in vivo
In test [1] the test system is Monochoria vaginalis Presl (Mo). The test is described as follows: Test for herbicidal effect during breeding period by paddy field water treatment (Test Example 5), Mo. Conditions: paddy field water treatment at 1-leaf stage, 25 g/10 a active ingredient, 30th day. As for the experimental part:
(§1) [table] <Test Example 5> Test For Herbicidal Effect During Breeding Period By Paddy Field Water Treatment A paddy field soil was filled in a plastic pot of 100 cm^2 and subjected to puddling. Seeds of Monochoria vaginalis Presl (Mo) and Scirpus juncoides Roxb. subsp. juncoides Roxb. (Sc) were sowed; water was filled in a depth of 3 cm; and breeding was made. When Mo reached a 1-leaf stage and Sc reached a 2-leaf stage, wettable powders produced in accordance with the Formulation 1 were diluted with water and dropped on the water surface. […] Then, breeding was made in a greenhouse. At the 30th day from the treatment, the herbicidal effect of each wettable powder was examined in accordance with the standard shown in Table 40.

Test [2] deals with Scirpus juncoides Roxb. subsp. juncoides Roxb. (Sc). The test is described as follows: Test for herbicidal effect during breeding period by paddy field water treatment (Test Example 5), Sc. Conditions: paddy field water treatment at 2-leaf stage, 25 g/10 a active ingredient, 30th day. How it is done: as §1
Test [3] deals with Echinochloa oryzicola Vasing. (Eo). The test is described as follows: Test for herbicidal effect by paddy field soil treatment (Test Example 1). Conditions: application amount (active ingredient) 100 g/10 a, examined at the 21st day from the treatment, index per Table 40. The procedure, abridged: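 Scored on a standard scale at day 21 in the greenhouse: herbicidal effect of wettable powder applied to flooded water (3 cm depth) at 100 g a.i./10 ares, one day after sowing Eo into puddled paddy soil.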

In test [4] the test system is Echinochloa crus-galli (L.) Beauv. var. crusgall (Ec). The test is described as follows: Test for herbicidal effect by upland field soil treatment (Test Example 2), Ec. The procedure, abridged:
(§2)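 Pre-emergence soil treatment: wettable powder diluted in water and sprayed on soil just sown with Ec and Se seeds, delivering 100 g active ingredient per 10 ares in 100 liters per 10 ares. Herbicidal effect was rated against a fixed scale 21 days later, after greenhouse growth.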

In test [5] the test system is Setaria viridis (L.) Beauv. (Se). The test is described as follows: Test for herbicidal effect by upland field soil treatment (Test Example 2), Se. The procedure, abridged:
as §2

The test system of test [6] is Echinochloa crus-galli (L.) Beauv. var. crusgalli (Ec). The test is described as follows: Test for herbicidal effect by upland foliage treatment (Test Example 3). Conditions: 100 g/10 a active ingredient, examined at 14th day. The procedure, abridged: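 Scored 14 days post-spray against a graded standard: greenhouse-grown Ec, 2 weeks old in upland soil, received whole-foliage application of diluted wettable powder (100 g active ingredient per 10 ares, spray volume 100 L per 10 ares).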

Test [7] concerns Polygonum lapathifolium L. subsp. nodosum (Pers.) Kitam. (Po). The test is described as follows: Test for herbicidal effect to broadleaf weeds by upland field soil treatment (Test Example 6), Po. Conditions: 25 g/10 a active ingredient, 30th day. As for the experimental part:
(§3) Test for herbicidal effect to broadleaf weeds by upland field soil treatment
(§4) An upland field soil was filled in a plastic pot of 80 cm^2. Seeds of Polygonum lapathifolium L. subsp. nodosum (Pers.) Kitam. (Po) and Chenopodium album L. (Ch) were sowed, followed by covering with the same soil. Wettable powders produced in accordance with the Formulation 1 were diluted with water and sprayed uniformly on the soil surface using a small sprayer, […] Then, breeding was made in a greenhouse. At the 30th day from the treatment, the herbicidal effect of each wettable powder was examined in accordance with the standard shown in Table 40.

Test [8] relates to Chenopodium album L. (Ch). Kind of test: Test for herbicidal effect to broadleaf weeds by upland field soil treatment (Test Example 6), Ch. Conditions: 25 g/10 a active ingredient, 30th day. As for the experimental part:
as §3, §4

[9] abbreviates: application amount (active ingredient) 100 g/10 a, examined at the 21st day from the treatment, index per Table 40.
Setting [10] is: 100 g/10 a active ingredient, examined at 21st day.

As to `CCc1ccccc1CS(=O)(=O)C1=NOC(C)(CCl)C1` (stereo not drawn) [Comparative compound 1, reference compound], the “Herbicidal effect to Mo” value in test [1] is 1 (A herbicidal effect or phytotoxicity of 10% to less than 30%). Moreover, the “Herbicidal effect to Sc” value in test [2] is 1 (A herbicidal effect or phytotoxicity of 10% to less than 30%).

For the compound `CC1(CCl)CC(S(=O)(=O)Cc2ccccc2F)=NO1` (stereo not drawn) [Comparative compound 2, reference compound], in test [1], the “Herbicidal effect to Mo” value is reported as 1 (A herbicidal effect or phytotoxicity of 10% to less than 30%). Further, the “Herbicidal effect to Sc” value in test [2] was 1 (A herbicidal effect or phytotoxicity of 10% to less than 30%).

For the compound `CCc1ccccc1CS(=O)(=O)C1=NOC(C)(C)C1` [Compound 1-8], in test [3], the “Herbicidal effect to Eo” value is 5 (A herbicidal effect or phytotoxicity of 90% or more). Further, the “Herbicidal effect to Ec” value in test [4] (setting [9]) and in test [6] was 5 (A herbicidal effect or phytotoxicity of 90% or more) each time. Also, the “Herbicidal effect to Se” value in test [5] (setting [9]) is on record as 5 (A herbicidal effect or phytotoxicity of 90% or more). In addition, the “Herbicidal effect to Mo” value in test [1] is listed as 5 (A herbicidal effect or phytotoxicity of 90% or more). In test [2], the “Herbicidal effect to Sc” value is on record as 4 (A herbicidal effect or phytotoxicity of 70% to less than 90%).

As for `CC(C)Oc1ccccc1CS(=O)(=O)C1=NOC(C)(C)C1` [Compound 1-49], the “Herbicidal effect to Eo” value in test [3] was 5 (A herbicidal effect or phytotoxicity of 90% or more). Moreover, the “Herbicidal effect to Ec” value in test [4] (setting [9]) and in test [6] was 5 (A herbicidal effect or phytotoxicity of 90% or more) each time. Further, the “Herbicidal effect to Se” value in test [5] (setting [9]) is given as 5 (A herbicidal effect or phytotoxicity of 90% or more). In addition, the “Herbicidal effect to Mo” value in test [1] was 5 (A herbicidal effect or phytotoxicity of 90% or more). In addition, the “Herbicidal effect to Sc” value in test [2] is recorded as 5 (A herbicidal effect or phytotoxicity of 90% or more).

On to `CC1(C)CC(S(=O)(=O)Cc2ccccc2OC(F)(F)F)=NO1` [Compound 1-58], for which, in test [3], the “Herbicidal effect to Eo” value is listed as 5 (A herbicidal effect or phytotoxicity of 90% or more). Besides, the “Herbicidal effect to Ec” value in test [4] (setting [9]) and in test [6] was 5 (A herbicidal effect or phytotoxicity of 90% or more) throughout. For the same compound, the “Herbicidal effect to Se” value in test [5] (setting [9]) was 5 (A herbicidal effect or phytotoxicity of 90% or more). Moreover, the “Herbicidal effect to Mo” value in test [1] was 4 (A herbicidal effect or phytotoxicity of 70% to less than 90%). The “Herbicidal effect to Sc” value in test [2] is 5 (A herbicidal effect or phytotoxicity of 90% or more).

As to `CC1(C)CC(S(=O)(=O)Cc2ccccc2C(F)(F)F)=NO1` [Compound 1-157], the “Herbicidal effect to Eo” value in test [3] was 5 (A herbicidal effect or phytotoxicity of 90% or more). Further, the “Herbicidal effect to Ec” value in test [4] (setting [9]) and in test [6] was 5 (A herbicidal effect or phytotoxicity of 90% or more) in each case. The “Herbicidal effect to Se” value in test [5] (setting [9]) is given as 5 (A herbicidal effect or phytotoxicity of 90% or more). Further, the “Herbicidal effect to Mo” value in test [1] was 5 (A herbicidal effect or phytotoxicity of 90% or more). Besides, the “Herbicidal effect to Sc” value in test [2] is on record as 5 (A herbicidal effect or phytotoxicity of 90% or more).

Turning to `O=S(=O)(Cc1c(F)cccc1F)C1=NOC2(CCC2)C1` [Compound 1-382], the “Herbicidal effect to Eo” value in test [3] is given as 5 (A herbicidal effect or phytotoxicity of 90% or more). Further, the “Herbicidal effect to Ec” value in test [4] (setting [9]) is 5 (A herbicidal effect or phytotoxicity of 90% or more). Moreover, the “Herbicidal effect to Se” value in test [5] (setting [9]) is 5 (A herbicidal effect or phytotoxicity of 90% or more). Also, the “Herbicidal effect to Mo” value in test [1] is 5 (A herbicidal effect or phytotoxicity of 90% or more). Moreover, in test [2], the “Herbicidal effect to Sc” value is listed as 4 (A herbicidal effect or phytotoxicity of 70% to less than 90%).

As to `CC1CC(S(=O)(=O)Cc2c(F)cccc2F)=NO1` (stereo not drawn) [Compound 1-532], in test [3], the “Herbicidal effect to Eo” value is reported as 5 (A herbicidal effect or phytotoxicity of 90% or more). Besides, the figures for the “Herbicidal effect to Ec” value in test [4] (setting [10]) and in test [6] were 5 (A herbicidal effect or phytotoxicity of 90% or more) and 4 (A herbicidal effect or phytotoxicity of 70% to less than 90%), respectively. Also, the “Herbicidal effect to Se” value in test [5] (setting [10]) is on record as 4 (A herbicidal effect or phytotoxicity of 70% to less than 90%). Besides, in test [7], the “Herbicidal effect to Po” value is given as 5 (A herbicidal effect or phytotoxicity of 90% or more). For the same compound, the “Herbicidal effect to Ch” value in test [8] was 5 (A herbicidal effect or phytotoxicity of 90% or more).

For the compound `COc1cccc(F)c1CS(=O)(=O)C1=NOC(C)(C)C1` [Compound 1-534], the “Herbicidal effect to Eo” value in test [3] is given as 5 (A herbicidal effect or phytotoxicity of 90% or more). Moreover, the “Herbicidal effect to Ec” value in test [4] (setting [10]) and in test [6] was 5 (A herbicidal effect or phytotoxicity of 90% or more) throughout. Moreover, in test [5] (setting [10]), the “Herbicidal effect to Se” value is given as 5 (A herbicidal effect or phytotoxicity of 90% or more). Further, in test [7], the “Herbicidal effect to Po” value is reported as 5 (A herbicidal effect or phytotoxicity of 90% or more). In test [8], the “Herbicidal effect to Ch” value is recorded as 5 (A herbicidal effect or phytotoxicity of 90% or more).

`Cc1cc(C)c(C)c(CS(=O)(=O)C2=NOC(C)(C)C2)c1C` [Compound 1-547]: the “Herbicidal effect to Eo” value in test [3] was 5 (A herbicidal effect or phytotoxicity of 90% or more). The “Herbicidal effect to Ec” value in test [4] (setting [10]) and in test [6] was 5 (A herbicidal effect or phytotoxicity of 90% or more) each time. The “Herbicidal effect to Se” value in test [5] (setting [10]) is 5 (A herbicidal effect or phytotoxicity of 90% or more). For the same compound, the “Herbicidal effect to Mo” value in test [1] is 5 (A herbicidal effect or phytotoxicity of 90% or more). Besides, the “Herbicidal effect to Sc” value in test [2] was 5 (A herbicidal effect or phytotoxicity of 90% or more).

On to `COC(=O)c1cccc(F)c1CS(=O)(=O)C1=NOC(C)(C)C1` [Compound 1-555], for which, in test [3], the “Herbicidal effect to Eo” value is 5 (A herbicidal effect or phytotoxicity of 90% or more). In addition, the “Herbicidal effect to Ec” value in test [4] (setting [10]) is 5 (A herbicidal effect or phytotoxicity of 90% or more); in test [6], 4 (A herbicidal effect or phytotoxicity of 70% to less than 90%). In addition, the “Herbicidal effect to Se” value in test [5] (setting [10]) is given as 5 (A herbicidal effect or phytotoxicity of 90% or more). Further, the “Herbicidal effect to Po” value in test [7] is given as 5 (A herbicidal effect or phytotoxicity of 90% or more). Moreover, the “Herbicidal effect to Ch” value in test [8] was 4 (A herbicidal effect or phytotoxicity of 70% to less than 90%).

For the compound `CC1(C)CC(S(=O)(=O)Cc2c(Cl)cccc2OCC(F)(F)F)=NO1` [Compound 1-567], in test [3], the “Herbicidal effect to Eo” value is listed as 5 (A herbicidal effect or phytotoxicity of 90% or more). Also, the “Herbicidal effect to Ec” value in test [4] (setting [10]) is on record as 5 (A herbicidal effect or phytotoxicity of 90% or more); in test [6], 4 (A herbicidal effect or phytotoxicity of 70% to less than 90%). In addition, the “Herbicidal effect to Se” value in test [5] (setting [10]) is reported as 5 (A herbicidal effect or phytotoxicity of 90% or more). The “Herbicidal effect to Mo” value in test [1] is reported as 5 (A herbicidal effect or phytotoxicity of 90% or more). Further, the “Herbicidal effect to Sc” value in test [2] was 5 (A herbicidal effect or phytotoxicity of 90% or more).

Take `CC1(C)CC(S(=O)(=O)Cc2c(F)cccc2OC(F)F)=NO1` [Compound 1-573]: in test [3], the “Herbicidal effect to Eo” value was 5 (A herbicidal effect or phytotoxicity of 90% or more). The “Herbicidal effect to Ec” value in test [4] (setting [10]) and in test [6] was 5 (A herbicidal effect or phytotoxicity of 90% or more) throughout. Further, in test [5] (setting [10]), the “Herbicidal effect to Se” value was 5 (A herbicidal effect or phytotoxicity of 90% or more). Besides, in test [7], the “Herbicidal effect to Po” value is reported as 5 (A herbicidal effect or phytotoxicity of 90% or more). For the same compound, the “Herbicidal effect to Ch” value in test [8] is reported as 5 (A herbicidal effect or phytotoxicity of 90% or more).
